Test results reported in ChEMBL document CHEMBL1938265, “Synthesis and biological evaluation of novel indolocarbazoles with anti-angiogenic activity” (Eur J Med Chem, 2012).
Calls of active or inactive are those of the source. No cut-off for these calls is given here.

Assays:
[1] = system: LoVo; test: Antiproliferative activity against human LoVo cells after 48 to 72 hrs by MTT assay; format: functional, cell-based
[2] = system: DLD-1; test: Antiproliferative activity against human DLD1 cells after 48 to 72 hrs by MTT assay; format: functional, cell-based
[3] = system: HUVEC; test: Antiproliferative activity against human HUVEC after 48 to 72 hrs by MTT assay; format: functional, cell-based
[4] = system: ST486; test: Antiproliferative activity against human ST486 cells after 48 to 72 hrs by MTT assay; format: functional, cell-based
[5] = system: HUVEC; test: Antiangiogenic activity against HUVEC assessed as inhibition of capillary tube formation at 20 uM after 24 hrs by Matrigel assay; format: functional, cell-based; settings: Homo sapiens
[6] = Antitumor activity against mouse LL/2 cells allografted in Lewis mouse assessed as change in tumor weight at 5 ug/ml, ip administered daily 24 hrs post implantation (reference value: 7.1 +/- 1.1 g); format: functional, Lewis lung carcinoma
[7] = system: DLD-1; test: Selectivity ratio of IC50 for human DLD1 cells to IC50 for HUVEC; format: functional
[8] = system: HUVEC; test: Antiangiogenic activity against HUVEC assessed as inhibition of capillary tube formation at 20 uM after 48 hrs by Matrigel assay; format: functional, cell-based; settings: Homo sapiens
[9] = system: LoVo; test: Selectivity ratio of IC50 for human LoVo cells to IC50 for HUVEC; format: functional
[10] = system: Mus musculus; test: Toxicity in Lewis mouse allografted with mouse LL/2 cells assessed as change in body weight at 5 ug/ml, ip administered daily 24 hrs post implantation measured on day 18 (reference value: 22.7 +/- 0.2 g); format: organism-based; settings: in vivo
[11] = Antitumor activity against mouse LL/2 cells allografted in Lewis mouse assessed as decrease in lung metastasis number at 5 ug/ml, ip administered daily 24 hrs post implantation (reference value: 11.8 +/- 7.1 number); format: functional, Lewis lung carcinoma
[12] = system: Mus musculus; test: Toxicity in Lewis mouse allografted with mouse LL/2 cells assessed as change in body weight at 4 mg/ml, ip administered daily 24 hrs post implantation measured on day 18 (reference value: 22.7 +/- 0.2 g); format: organism-based; settings: in vivo
[13] = Antitumor activity against mouse LL/2 cells allografted in Lewis mouse assessed as decrease in lung metastasis number at 4 mg/ml, ip administered daily 24 hrs post implantation (reference value: 11.8 +/- 7.1 number); format: functional, Lewis lung carcinoma
[14] = Antitumor activity against mouse LL/2 cells allografted in Lewis mouse assessed as change in tumor weight at 4 mg/ml, ip administered daily 24 hrs post implantation (reference value: 7.1 +/- 1.1 g); format: functional, Lewis lung carcinoma

IC50 [1] [µM]	IC50 [2] [µM]	Structure (SMILES)	IC50 [3] [µM]	IC50 [4] [µM]	also measured
6	7	CNCCOCCn1c2ccccc2c2c3c(c4c5ccccc5[nH]c4c21)C(=O)N(CCN(C)C)C3=O	0.3	3	
20	20	CN(C)CCOCCn1c2ccccc2c2c3c(c4c5ccccc5[nH]c4c21)C(=O)N(CCN(C)C)C3=O.Cl.Cl	0.1	4	Activity [5]: Active; Activity [6]: 7.6 g; Ratio IC50 [7]: 200; Activity [8]: Active; Ratio IC50 [9]: 200; Activity [10]: 28.5 g; Activity [11]: 9
0.3	20	CN(C)CCN1C(=O)c2c(c3c4ccccc4n(CCOCCO)c3c3[nH]c4ccccc4c23)C1=O	0.1	3	
4	2	O=C1NC(=O)c2c1c1c3ccccc3[nH]c1c1c2c2ccccc2n1CCOCCO	10	0.1	

Second part, the compound before the results:

Structure (SMILES)	IC50 [1] [µM]	IC50 [2] [µM]	IC50 [3] [µM]	IC50 [4] [µM]	also measured
CN[C@@H]1C[C@H]2O[C@@](C)([C@@H]1OC)n1c3ccccc3c3c4c(c5c6ccccc6n2c5c31)C(=O)NC4 [STAUROSPORINE]				0.007	
CN(C)CCN1C(=O)c2c(c3c4ccccc4[nH]c3c3[nH]c4ccccc4c23)C1=O	0.5	3	7	1	Activity [5]: Active; Activity [6]: 7.3 g; Activity [8]: Active; Activity [10]: 27.29 g; Activity [11]: 9.4
Cc1ccc(C(=O)Nc2ccc(S(=O)(=O)O)c3cc(S(=O)(=O)O)cc(S(=O)(=O)O)c23)cc1NC(=O)c1cccc(NC(=O)Nc2cccc(C(=O)Nc3cc(C(=O)Nc4ccc(S(=O)(=O)O)c5cc(S(=O)(=O)O)cc(S(=O)(=O)O)c45)ccc3C)c2)c1 [SURAMIN]					Activity [12]: 25.5 g; Activity [13]: 5; Activity [14]: 5.9 g
CN(C)CCOCCn1c2ccccc2c2c3c(c4c5ccccc5[nH]c4c21)C(=O)NC3=O			2	2	
